# Results: patent publication US11964988B2, “Fused heterocyclic compounds as RET kinase inhibitors” (ARRAY BIOPHARMA INC., priority 2018, dated 2024)
# Substitutions are numbered along the chain they refer to.
# Columns and labels:
# G810R mutant RET kinase = G810R mutant RET kinase (Homo sapiens, UniProt P07949, G810R); assay: biochemical;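 further: HTRF KinEASE-TK enzymatic assay with 1 nM recombinant RET G810R, 1 h at 22 °C, dual-wavelength ratiometric readout, 100% control without compound, 0% from pre-quenched reactions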
# Sequence of G810R mutant RET kinase (P07949 29-1114 G810R): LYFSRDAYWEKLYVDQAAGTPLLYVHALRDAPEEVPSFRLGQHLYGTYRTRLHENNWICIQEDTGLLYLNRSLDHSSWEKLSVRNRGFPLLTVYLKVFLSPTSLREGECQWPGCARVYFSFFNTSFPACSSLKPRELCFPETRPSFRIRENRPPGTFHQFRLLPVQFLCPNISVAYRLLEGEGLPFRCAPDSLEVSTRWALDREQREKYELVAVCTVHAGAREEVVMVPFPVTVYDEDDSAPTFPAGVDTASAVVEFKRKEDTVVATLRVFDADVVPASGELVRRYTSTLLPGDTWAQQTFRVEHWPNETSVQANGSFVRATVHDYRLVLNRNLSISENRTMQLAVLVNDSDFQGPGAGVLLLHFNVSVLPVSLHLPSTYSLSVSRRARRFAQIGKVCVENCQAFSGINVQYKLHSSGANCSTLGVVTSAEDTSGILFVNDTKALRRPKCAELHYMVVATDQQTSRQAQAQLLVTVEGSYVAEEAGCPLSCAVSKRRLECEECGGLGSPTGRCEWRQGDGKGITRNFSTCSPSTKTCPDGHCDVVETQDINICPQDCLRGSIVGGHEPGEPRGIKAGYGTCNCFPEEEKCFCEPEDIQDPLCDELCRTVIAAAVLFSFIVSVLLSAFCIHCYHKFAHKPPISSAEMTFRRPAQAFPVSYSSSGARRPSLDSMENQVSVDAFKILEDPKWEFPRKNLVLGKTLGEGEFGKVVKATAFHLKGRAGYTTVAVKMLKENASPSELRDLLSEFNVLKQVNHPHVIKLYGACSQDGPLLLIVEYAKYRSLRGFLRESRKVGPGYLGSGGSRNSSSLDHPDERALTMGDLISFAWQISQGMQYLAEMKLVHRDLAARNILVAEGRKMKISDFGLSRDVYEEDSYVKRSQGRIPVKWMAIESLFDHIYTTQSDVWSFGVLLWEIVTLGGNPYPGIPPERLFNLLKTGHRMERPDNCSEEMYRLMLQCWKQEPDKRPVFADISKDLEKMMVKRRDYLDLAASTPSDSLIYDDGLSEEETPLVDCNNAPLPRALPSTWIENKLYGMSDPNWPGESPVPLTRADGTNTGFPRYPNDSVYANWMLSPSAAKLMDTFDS
# Procedure: (§2) The potency of compounds inhibiting several different RET kinase forms (Wild Type, V804M, G810R, & G810S) were determined using CisBio's HTRF® KinEASE™-TK assay technology. […] After a 1 hour incubation at 22° C., the extent of reaction was determined using a PerkinElmer EnVision multimode plate reader via HTRF dual wavelength detection, and the percent of control (POC) was calculated using a ratiometric emission factor. One hundred POC was determined using DMSO only samples (no compound present), and 0 POC was determined using pre-quenched control reactions.
# The potency of a compound inhibiting G810R or G810S mutant RET kinase was determined using CisBio's HTRF® KinEASE™-TK assay technology. The assays contained G810R or G810S mutant RET produced at Array Biopharma, Inc. (1 nM enzyme). […] After a 1-h incubation at 22° C., the extent of reaction was determined using a PerkinElmer EnVision multimode plate reader via HTRF dual wavelength detection, and the percent of control (POC) was calculated using a ratiometric emission factor. One hundred POC was determined using no test compounds, and 0 POC was determined using pre-quenched control reactions.
# [1] = biological target: T1, HEK-293 cells expressing a G810R mutant RET Kif5b-RET fusion protein (Homo sapiens, UniProt P07949, G810R); assay: RET G810R Mutant Cell Assay (phospho-RET Tyr1062); format: cell-based; conditions: HEK-293 Kif5b-RET G810R, 1 hour incubation, phospho-RET normalized to GAPDH
# T1 construct: KIF5B (N-terminal portion incl. coiled-coil); expressed in transfected cells; host or cells: HEK-293; the other entry of the earlier key: KIF5B (P33176, Kinesin-1 heavy chain)
# T1 sequence (P07949 713-1063 G810R limits assumed): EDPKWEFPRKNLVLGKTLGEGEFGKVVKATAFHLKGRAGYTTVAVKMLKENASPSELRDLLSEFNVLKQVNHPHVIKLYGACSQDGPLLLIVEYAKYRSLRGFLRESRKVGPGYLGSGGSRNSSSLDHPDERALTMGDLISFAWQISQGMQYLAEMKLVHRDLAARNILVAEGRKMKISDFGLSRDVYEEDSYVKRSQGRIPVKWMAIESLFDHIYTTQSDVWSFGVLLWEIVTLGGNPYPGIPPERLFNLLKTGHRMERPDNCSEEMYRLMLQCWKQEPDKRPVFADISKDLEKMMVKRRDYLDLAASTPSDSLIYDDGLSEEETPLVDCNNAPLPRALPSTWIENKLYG
# Summary of the method: (§1)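 Signals came from in-cell immunostaining of fixed, methanol-permeabilized HEK-293 fusion-expressing cells exposed 1 h to compound in DMEM with 0.5% DMSO.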
# RET kinase Wild Type = RET kinase Wild Type (Homo sapiens, UniProt P07949); assay: biochemical;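 further: HTRF kinase activity assay on RET enzyme, 1 h reaction at 22 °C, dual-wavelength readout as percent of control, DMSO-only wells as 100%, pre-quenched reactions as 0%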
# Sequence of RET kinase Wild Type (P07949 29-1114): as the sequence (P07949 29-1114 G810R) above, with R782G counted along it
# Procedure: as §2
# G810S mutant RET kinase = G810S mutant RET kinase (Homo sapiens, UniProt P07949, G810S); assay: biochemical;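 further: HTRF KinEASE-TK kinase assay with recombinant enzyme, 1 h at 22 °C, dual-wavelength ratiometric read-out, percent of control (DMSO-only = 100, pre-quenched reaction = 0)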
# Sequence of G810S mutant RET kinase (P07949 29-1114 G810S): as the sequence (P07949 29-1114 G810R) above, with R782S counted along it
# RET kinase V804M = RET kinase V804M (Homo sapiens, UniProt P07949, V804M); assay: RET Enzyme Assay (CisBio HTRF KinEASE-TK), V804M; format: biochemical; conditions: read-out: RET V804M Enz FRET IC50
# Sequence of RET kinase V804M (P07949 29-1114 V804M): as the sequence (P07949 29-1114 G810R) above, with V776M, R782G counted along it
# Procedure: as §2
# [2] = biological target: T2, HEK-293 cells expressing a G810S mutant RET Kif5b-RET fusion protein (Homo sapiens, UniProt P07949, G810S); assay: RET G810S Mutant Cell Assay (phospho-RET Tyr1062); format: cell-based; conditions: HEK-293 Kif5b-RET G810S, 1 hour incubation, phospho-RET normalized to GAPDH
# T2 construct: KIF5B (N-terminal portion incl. coiled-coil); expressed in transfected cells; host or cells: HEK-293
# T2 sequence (P07949 713-1063 G810S limits assumed): T1 sequence (P07949 713-1063 G810R limits assumed) with R98S
# Summary of the method: as §1
# [3] = biological target: T3, HEK-293 cells expressing a Kif5b-RET fusion protein (Homo sapiens, UniProt P07949); assay: RET Cell Assay (phospho-RET Tyr1062); format: cell-based; conditions: HEK-293 Kif5b-RET, 1 hour incubation, phospho-RET normalized to GAPDH; read-out: KIF5B-RET pTYR1062 Cell IC50
# T3 construct: KIF5B (N-terminal portion incl. coiled-coil); expressed in transfected cells; host or cells: HEK-293; the other entry of the earlier key: KIF5B (P33176, Kinesin-1 heavy chain)
# T3 sequence (P07949 713-1063 limits assumed): T1 sequence (P07949 713-1063 G810R limits assumed) with R98G
# Summary of the method: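 Phospho-RET (Tyr1062) to GAPDH ratio read by in-cell fluorescent immunodetection after 1 hour compound exposure in DMEM, 0.5% DMSO. Cells: HEK-293 carrying Kif5b-RET fusion. POC data fit to a 4-parameter logistic curve, IC50 taken at 50 POC.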
IC50 (G810R mutant RET kinase),IC50 [1],IC50 (RET kinase Wild Type),IC50 (G810S mutant RET kinase),IC50 (RET kinase V804M),IC50 [2],IC50 [3],Compound
80 nM,206 nM,131 nM,75 nM,99 nM,108 nM,125 nM,"Nc1ncnc2c1c1c(n2-c2ccccc2)CCC(O)c2c-1noc2C1CC1 (stereo not drawn) [Example 118, 11-Amino-3-cyclopropyl-7-phenyl-4,5,6,7-tetrahydroisoxazolo[4″,3″:6′,7′]cyclohepta[1′,2′:4,5]pyrrolo[2,3-d]pyrimidin-4-ol 2,2,2-trifluoroacetate]"
74 nM,35 nM,10 nM,24 nM,20 nM,33 nM,15 nM,"Nc1ncnc2c1c1c(n2C2CCCC2)CCC(O)c2c-1noc2C1CC1 (stereo not drawn) [Example 120, 11-Amino-7-cyclopentyl-3-cyclopropyl-4,5,6,7-tetrahydroisoxazolo[4″,3″:6′,7′]cyclohepta[1′,2′:4,5]pyrrolo[2,3-d]pyrimidin-4-ol]"
45 nM,157 nM,21 nM,40 nM,98 nM,101 nM,29 nM,"CC1Cc2c(c3c(N)ncnc3n2C(C)C)-c2noc(C3CC3)c2C1=O (stereo not drawn) [Example 60, 11-amino-3-cyclopropyl-7-isopropyl-5-methyl-6,7-dihydroisoxazolo[4″,3″:6′,7′]cyclohepta[1′,2′:4,5]pyrrolo[2,3-d]pyrimidin-4(5H)-one]"
202 nM,89 nM,47 nM,204 nM,5780 nM,71 nM,32 nM,"CC(C)n1c2c(c3c(N)ncnc31)-c1cc3ccc(C(=O)NC4CC4)cc3n1CCC2 [Example 87, 1-Amino-N-cyclopropyl-5-isopropyl-5,6,7,8-tetrahydropyrimido[5″,4″:4′,5′]pyrrolo[3′,2′:3,4]azepino[1,2-a]indole-11-carboxamide]"
118 nM,439 nM,61 nM,108 nM,211 nM,352 nM,72 nM,"CC(C)n1c2c(c3c(N)ncnc31)-c1noc(C3CC3)c1[C@@H](O)[C@@H](C)C2 (relative stereo) [Example 63, (Cis)-11-amino-3-cyclopropyl-7-isopropyl-5-methyl-4,5,6,7-tetrahydroisoxazolo[4″,3″:6′,7′]cyclohepta[1′,2′:4,5]pyrrolo[2,3-d]pyrimidin-4-ol]"
63 nM,133 nM,18 nM,54 nM,189 nM,107 nM,20 nM,"CC(C)n1c2c(c3c(N)ncnc31)-c1noc(C3CC3)c1S(=O)(=O)CC2 [Example 23, 11-amino-3-cyclopropyl-7-isopropyl-6,7-dihydro-5H-isoxazolo[4″,3″:2′,3′]thiepino[4′,5′:4,5]pyrrolo[2,3-d]pyrimidine 4,4-dioxide 2,2,2-trifluoroacetate]"
96 nM,349 nM,34 nM,74 nM,138 nM,192 nM,52 nM,"CC(C)n1c2c(c3c(N)ncnc31)-c1noc(C3CC3)c1[C@@H](O)[C@H](C)C2 (relative stereo) [Example 62, (Trans)-11-amino-3-cyclopropyl-7-isopropyl-5-methyl-4,5,6,7-tetrahydroisoxazolo[4″,3″:6′,7′]cyclohepta[1′,2′:4,5]pyrrolo[2,3-d]pyrimidin-4-ol]"
97 nM,30 nM,14 nM,18 nM,41 nM,60 nM,14 nM,"CC(n1c2c(c3c(N)ncnc31)-c1noc(C3CC3)c1C(O)CC2)C(F)(F)F (stereo not drawn) [Example 131, 11-Amino-3-cyclopropyl-7-(1,1,1-trifluoropropan-2-yl)-4,5,6,7-tetrahydroisoxazolo[4″,3″:6′,7′]cyclohepta[1′,2′:4,5]pyrrolo[2,3-d]pyrimidin-4-ol]"
23 nM,46 nM,8 nM,19 nM,21 nM,65 nM,18 nM,"Nc1ncnc2c1c1c(n2C2CCC(O)C2)CCC(O)c2c-1noc2C1CC1 (stereo not drawn) [Example 129, 11-Amino-3-cyclopropyl-7-(3-hydroxycyclopentyl)-4,5,6,7-tetrahydroisoxazolo[4″,3″:6′,7′]cyclohepta[1′,2′:4,5]pyrrolo[2,3-d]pyrimidin-4-ol]"
135 nM,160 nM,53 nM,123 nM,254 nM,111 nM,28 nM,"CC(C)n1c2c(c3c(N)ncnc31)-c1noc(C3CC3)c1C(=O)N(C)C2 [Example 20, 11-amino-3-cyclopropyl-7-isopropyl-5-methyl-6,7-dihydroisoxazolo[4,3-c]pyrimido[5′,4′:4,5]pyrrolo[3,2-e]azepin-4(5H)-one]"
64 nM,621 nM,43 nM,133 nM,163 nM,290 nM,45 nM,"CC(C)n1c2c(c3c(N)ncnc31)-c1noc(C3CC3)c1[C@H](O)[C@@H](C)C2 (single isomer, unassigned) [Example 65]"
288 nM,53 nM,62 nM,297 nM,6260 nM,44 nM,50 nM,"CC(C)n1c2c(c3c(N)ncnc31)-c1cc3ccc(C(=O)Nc4ccn(CCN5CCOCC5)n4)cc3n1CCC2 [Example 88, 1-amino-5-isopropyl-N-(1-(2-morpholinoethyl)-1H-pyrazol-3-yl)-5,6,7,8-tetrahydropyrimido[5″,4″:4′,5′]pyrrolo[3′,2′: 3,4]azepino[1,2-a]indole-11-carboxamide]"
84 nM,40 nM,12 nM,46 nM,15 nM,18 nM,4 nM,"CC1(n2c3c(c4c(N)ncnc42)-c2noc(C4CC4)c2[C@H](O)CC3)CC1 [Example 150, (R)-11-Amino-3-cyclopropyl-7-(1-methylcyclopropyl)-4,5,6,7-tetrahydroisoxazolo[4″,3″:6′,7′]cyclohepta[1′,2′:4,5]pyrrolo[2,3-d]pyrimidin-4-ol]"
70 nM,103 nM,13 nM,54 nM,41 nM,92 nM,22 nM,"CC(C)n1c2c(c3c(N)ncnc31)-c1noc(C3CC3)c1[C@@H](O)CC2 (single isomer, unassigned) [Example 54]"
28 nM,57 nM,6 nM,23 nM,21 nM,52 nM,9 nM,"Nc1ncnc2c1c1c(n2C(CF)CF)CC[C@@H](O)c2c-1noc2C1CC1 (single isomer, unassigned) [Example 127]"
